Assay results published in patent US20130281544A1, “HEPATOPROTECTANT ACTIVITY OF GARCINOL” (priority 2010, published 2013).
≈ marks a conversion by molar mass, not a printed value.

Legend:
[1] = system: Hep G2 liver cancer cell line; test: in vitro; type: cell-based
[2] = in vitro; type: cell-based; conditions: human
[3] = system: paracetamol induced liver damage in rats; test: Serum enzymes ALT, AST, ALP in paracetamol (APAP) induced liver damage; type: in vivo, Male Wistar Rats; conditions: for ALP percent change / ALT percent change / AST percent change / ALP / ALT / AST: serum; for ALP / ALT / AST: Mean ± SE
Experimental: Doses of Garcinol (GC) used for the study: 1.25, 2.5, 5, 10 mg/kg p.o.
Standard drug: Silymarin (50 mg/kg) p.o.
Experimental animals orally received paracetamol (400 mg/kg body weight) for seven days. The animals from drug treated group received 400 mg/kg body weight of paracetamol dissolved in water orally along with graded doses of test drug Garcinol for seven days. The standard group animals received 50 mg/kg body weight of standard drug silymarin and 400 mg/kg body weight of paracetamol for seven days and served as standard control. [N. Kanchana and A. Mohamed Sadiq, Hepatoprotective effect of Plumbago zeylanica on paracetamol induced liver toxicity in rats, Int J Pharm Pharm Sci, Vol 3, Issue 1, 151-154 (2011)].
Blood was collected from the retro-orbital plexus of experimental animals and no anti-coagulant was added. Blood was made to stand at room temperature for 1 hour. It was then centrifuged and clear serum was separated. The serum was then stored for analysis. Reference: (Magari et al., 2004).
(ASPARTATE AMINOTRANSFERASE and ALANINE AMINOTRANSFERASE), Reference: Ritman S, Frankel S, (1957). A colorimeteric method for the determination of serum glutamic oxaloacetic and glutamic pyruvic transaminases. American Journal of Clinical Pathology; 28: 56-63.
0.2 ml of serum, collected from test and control samples, was mixed with 1.0 ml of buffer solution and incubated for 60 min at 37° C. in a water bath. After the addition of 1.0 ml of chromogen solution, the samples were kept at room temperature for 20 minutes for the reaction to proceed and 10 ml NaOH was added. The optical density was red at 546 nm after 5 min. To the blank, serum was added after the addition of chromogen solution.
(ALKALINE PHOSPHATASE), Reference: Klaus Walter and Schutt C. (1974). Acid and alkaline phosphatase in serum. In: Methods of Enzymatic Analysis. Eds. Hans Ulrich Bergmeyer, Verlag ChemieWeinheim, Academic press, Inc. New York, 2nd Edition, Vol. 2, pp. 855-64.
Alkaline phosphatase activity measurement is based on the ability of the enzyme to hydrolyze p-nitrophenol phosphate under alkaline conditions. The cleaved product p-nitrophenol is yellow in alkaline solution and is measured at 400-420 nm (Klaus and Schutt, 1974). 2.0 ml of buffered substrate was taken in the tubes ‘Test’ ‘Control’ and ‘Blank’ followed by addition of serum and distilled water (0.1 ml) in ‘Test’ and ‘Blank’ respectively and incubated in a water bath for 30 minutes at 25° C. After incubation sodium hydroxide was added (0.25 N, 2 ml) to all the tubes, which was followed by serum (0.1 ml) to the tubes marked ‘Control’. The yellow colour formed was measured spectrophotometrically against blank at 410 nm. […]

In the case of `C=C(C)[C@@H](CC=C(C)C)C[C@@]12C[C@@H](CC=C(C)C)C(C)(C)[C@@](CC=C(C)C)(C(=O)C(C(=O)c3ccc(O)c(O)c3)=C1O)C2=O` [Garcinol], the “effective concentration for mammalian hepatocyte protection” value [1] is reported as 0.78 to 6.25 µg/mL, the IC50 ([1]; Homo sapiens, HepG2, HEP G2 cells, MTT, read-out: Hepatoprotective activity in HEP G2 cells IC50) is reported as 13.3 µg/mL (≈ 22.1 µM) and the cytotoxicity at 0.78 μg/ml [2] is reported as -3.81%. It also gave a cytotoxicity at 1.56 μg/ml [2] of -12.1%, a cytotoxicity at 3.13 μg/ml [2] of -14.7% and a cytotoxicity at 6.25 μg/ml [2] of -1.94%. For the same molecule, the cytotoxicity at 12.5 μg/ml [2] was 35.8%, the cytotoxicity at 25 μg/ml [2] was 60.9% and the cytotoxicity at 50 μg/ml [2] was 83.2%. For the same molecule, the cytotoxicity at 100 μg/ml [2] was 83.4%, the cytotoxicity at 200 μg/ml [2] was 79.5% and the “Average Protection” value ([3]; 1.25 mg/kg p.o.) was 13.06%. For the same molecule, the “Average Protection” value ([3]; 2.50 mg/kg p.o.) was 21.51%, the “Average Protection” value ([3]; 5.00 mg/kg p.o.) was 36.31% and the “Average Protection” value ([3]; 10.00 mg/kg p.o.) was 33.22%. For the same molecule, the ALP percent change ([3]; 1.25 mg/kg p.o.) was “(8.21) %”, the ALT percent change ([3]; 1.25 mg/kg p.o.) was “(21.69) %” and the AST percent change ([3]; 1.25 mg/kg p.o.) was “(9.30) %”. It also gave an ALP ([3]; 1.25 mg/kg p.o.) of 37.21 ± 3.44 μmol min/lt, an ALT ([3]; 1.25 mg/kg p.o.) of 862.97 ± 53.38 μmol min/lt and an AST ([3]; 1.25 mg/kg p.o.) of 761.61 ± 43.96 μmol min/lt. For the same molecule, the ALP percent change ([3]; 2.50 mg/kg p.o.) was “(15.44) %”, the ALT percent change ([3]; 2.50 mg/kg p.o.) was “(26.62) %” and the AST percent change ([3]; 2.50 mg/kg p.o.) was “(22.49) %”. The ALP ([3]; 2.50 mg/kg p.o.) was 34.28 ± 1.98 μmol min/lt, the ALT ([3]; 2.50 mg/kg p.o.) was 808.64 ± 38.55 μmol min/lt and the AST ([3]; 2.50 mg/kg p.o.) was 650.88 ± 35.84 μmol min/lt. The ALP percent change ([3]; 5.00 mg/kg p.o.) was “(24.17) %”, the ALT percent change ([3]; 5.00 mg/kg p.o.) was “(39.96) %” and the AST percent change ([3]; 5.00 mg/kg p.o.) was “(44.81) %”. For the same molecule, the ALP ([3]; 5.00 mg/kg p.o.) was 30.74 ± 2.05 μmol min/lt, the ALT ([3]; 5.00 mg/kg p.o.) was 661.67 ± 51.40 μmol min/lt and the AST ([3]; 5.00 mg/kg p.o.) was 463.41 ± 38.56 μmol min/lt. For the same molecule, the ALP percent change ([3]; 10.00 mg/kg p.o.) was “(17.11) %”, the ALT percent change ([3]; 10.00 mg/kg p.o.) was “(46.44) %” and the AST percent change ([3]; 10.00 mg/kg p.o.) was “(36.12) %”. It also gave an ALP ([3]; 10.00 mg/kg p.o.) of 33.60 ± 1.93 μmol min/lt, an ALT ([3]; 10.00 mg/kg p.o.) of 590.22 ± 50.98 μmol min/lt and an AST ([3]; 10.00 mg/kg p.o.) of 536.39 ± 44.13 μmol min/lt.
